Measured values reported in patent US20060263802A1 (priority 2003, published 2006).

Columns and labels:
Format in all cases: binding
[1] = test system: human monoclonal antibody CRJB
[2] = test system: human monoclonal antibody CR57
[3] = test system: human monoclonal antibody CRJA
[4] = test system: human monoclonal antibody CRJA; remark: listed apart in the source
[5] = test system: human monoclonal antibody CR57; remark: listed apart in the source
[6] = test system: human monoclonal antibody CRJB; remark: listed apart in the source

| Sequence | Binding of CRJB to looped/cyclic peptide (PEPSCAN-ELISA signal) [1] | Binding of human monoclonal antibody CR57 to linear peptide (PEPSCAN-ELISA signal) [2] | Binding of human monoclonal antibody CRJA to linear peptide (PEPSCAN-ELISA signal) [3] | Binding of CRJA to looped/cyclic peptide (PEPSCAN-ELISA signal) [4] | Binding of CR57 to looped/cyclic peptide (PEPSCAN-ELISA signal) [5] | Binding of human monoclonal antibody CRJB to linear peptide (PEPSCAN-ELISA signal) [6] | Binding of CRJB (10 μg/ml) to looped/cyclic peptide (PEPSCAN-ELISA signal) [1] | Binding of CR57 to linear peptide (PEPSCAN-ELISA signal) [2] | Binding of CRJA to linear peptide (PEPSCAN-ELISA signal) [3] | Binding of CRJA (10 μg/ml) to looped/cyclic peptide (PEPSCAN-ELISA signal) [4] | Binding of CR57 (10 μg/ml) to looped/cyclic peptide (PEPSCAN-ELISA signal) [5] | Binding of CRJB to linear peptide (PEPSCAN-ELISA signal) [6] | Binding of CRJB (10 μg/ml) to looped/cyclic peptide (PEPSCAN-ELISA) [1] | Binding of CRJA (10 μg/ml) to looped/cyclic peptide (PEPSCAN-ELISA) [4] | Binding of CR57 (10 μg/ml) to looped/cyclic peptide (PEPSCAN-ELISA) [5] |
| --- | --- | --- | --- | --- | --- | --- | --- | --- | --- | --- | --- | --- | --- | --- | --- |
| PSTVFKDGDEAEDFV | 101 | 104 | 105 | 113 | 118 | 143 |  |  |  |  |  |  |  |  |  |
| PSVADLDPYDRSLHS |  |  |  |  |  |  | 33 | 44 | 72 | 62 | 57 | 114 |  |  |  |
| PTPDACRAAYNWKMA |  |  |  |  |  |  | 112 | 99 | 129 | 136 | 114 | 125 |  |  |  |
| PWSPIDIHHLSCPNN |  |  |  |  |  |  | 75 | 62 | 76 | 91 | 93 | 104 |  |  |  |
| PYDRSLHSRVFPSGK |  |  |  |  |  |  | 90 | 86 | 104 | 113 | 134 | 120 |  |  |  |
| PYPDYRWLRTVKTTK |  |  |  |  |  |  | 92 | 65 | 84 | 76 | 88 | 93 |  |  |  |
| QHMELLESSVIPLVH |  |  |  |  |  |  |  | 98 | 87 |  |  | 146 | 97 | 111 | 132 |
| QLVNLHDFRSDEIEH |  |  |  |  |  |  |  | 60 | 89 |  |  | 113 | 44 | 66 | 47 |
| QQHMELLESSVIPLV |  |  |  |  |  |  |  | 103 | 100 |  |  | 134 | 92 | 94 | 141 |
| QSSLLQQHMELLESS |  |  |  |  |  |  |  | 82 | 98 |  |  | 114 | 85 | 99 | 97 |
| QTSNETKWCPPDQLV |  |  |  |  |  |  |  | 92 | 90 |  |  | 120 | 62 | 106 | 118 |
| RAAYNWKMAGDPRYE |  |  |  |  |  |  | 101 | 90 | 92 | 86 | 141 | 130 |  |  |  |
| RASKGSETCGFVDER |  |  |  |  |  |  |  | 86 | 90 |  |  | 110 | 90 | 100 | 105 |
| RCHPHVNGVFFNGII |  |  |  |  |  |  |  | 98 | 108 |  |  | 141 | 100 | 106 | 104 |
| REECLDALESIMTTK |  |  |  |  |  |  |  | 94 | 94 |  |  | 110 | 79 | 92 | 89 |
| RGKRASKGSETCGFV |  |  |  |  |  |  |  | 75 | 87 |  |  | 104 | 68 | 102 | 101 |
| RGLYKSLKGACKLKL |  |  |  |  |  |  |  | 90 | 107 |  |  | 121 | 96 | 113 | 96 |
| RKHFRPTPDACRAAY |  |  |  |  |  |  | 79 | 64 | 57 | 41 | 72 | 107 |  |  |  |
| RKLVPGFGKAYTIFN |  |  |  |  |  |  |  | 47 | 48 |  |  | 115 | 79 | 44 | 52 |
| RKREECLDALESIMT |  |  |  |  |  |  |  | 73 | 96 |  |  | 110 | 96 | 129 | 132 |
| RLGMSCDIFTNSRGK |  |  |  |  |  |  | 104 | 88 | 92 | 110 | 105 | 106 |  |  |  |
| RLMDGTWVAMQTSNE |  |  |  |  |  |  |  | 100 | 99 |  |  | 113 | 89 | 82 | 96 |
| RLSHLRKLVPGFGKA |  |  |  |  |  |  |  | 93 | 93 |  |  | 123 | 111 | 106 | 111 |
| RPTPDACRAAYNWKM |  |  |  |  |  |  | 51 | 77 | 123 | 96 | 76 | 101 |  |  |  |
| RRLSHLRKLVPGFGK |  |  |  |  |  |  |  | 92 | 85 |  |  | 143 | 88 | 96 | 111 |
| RSDEIEHLVVEELVR |  |  |  |  |  |  |  | 100 | 93 |  |  | 138 | 93 | 107 | 136 |
| RSLHSRVFPSGKCSG |  |  |  |  |  |  | 93 | 87 | 125 | 123 | 102 | 141 |  |  |  |
| RTVKTTKESLVIISP |  |  |  |  |  |  | 69 | 82 | 103 | 88 | 88 | 120 |  |  |  |
| RTWNEILPSKGCLRV |  |  |  |  |  |  |  | 120 | 97 |  |  | 127 | 93 | 102 | 107 |
| RVFPSGKCSGVAVSS |  |  |  |  |  |  | 89 | 69 | 58 | 43 | 75 | 110 |  |  |  |
